Literature values, collected in US10292957B2, “Compositions and methods for treating fibromyalgia” (Quality IP Holdings, LLC, priority 2012, dated 2019).

What was measured:
hGH secretion = settings: for Effect on hGH: other amino acids, literature
HGH-deficient adults = settings: within months of hGH treatment
[1] = system: patients with fibromyalgia; settings: 4 days treatment
[2] = system: patients with severe fibromyalgia and low insulin-like growth factor 1 levels
[3] = system: fibromyalgia patients with low IGF-1 levels
[4] = system: women with fibromyalgia and low IGF-1 levels
[5] = after subcutaneous injection of 0.06 IU, hGH deficient subjects

N=C(N)NCCC[C@H](N)C(=O)O [arginine]
Elevation of serum hGH levels (hGH secretion; 30 g, males): 8.6 fold
Increase of hGH levels (hGH secretion; intravenous infusion of 183 mg/kg body weight, females): > 20 fold

N[C@@H](Cc1c[nH]cn1)C(=O)O [histidine]
Effect on hGH (hGH secretion): marked increases

NCCCC[C@H](N)C(=O)O [lysine]
Effect on hGH (hGH secretion): marked increases

CSCC[C@H](N)C(=O)O [methionine]
Effect on hGH (hGH secretion): marked increases

NCCC[C@H](N)C(=O)O [ornithine]
Effect on hGH (hGH secretion): marked increases

N[C@@H](Cc1ccccc1)C(=O)O [phenylalanine]
Effect on hGH (hGH secretion): marked increases

hGH: human growth hormone, injectable
Lean body mass, skin thickness and muscle mass (HGH-deficient adults): gains
Plasma IGF-1 levels [1]: increase
Plasma IGF-BP3 levels [1]: increase
Pain ([2]; addition to the standard treatment, sustained action over time): effective in reducing pain
FIQ scores compared with placebo group ([2]; low-dose add-on to standard treatment, 120 patients): significantly improved
Tolerability of concomitant administration with standard therapy ([3]; no patients discontinued due to adverse events): well tolerated
Reduction in the mean number of tender points (pairs) compared to the control group ([3]; subcutaneous, added to standard therapy, one year, end of study): 60%
FIQ score and tender point score over the placebo group ([4]; at nine months): significant improvement
IGF-1 levels ([4]; daily subcutaneous injections): prompt and sustained increase
Mean levels of hGH reached [5]: 0.4 ng/mL
